Patent US20230183218A1, “CONDENSED SUBSTITUTED HYDROPYRROLES AS ANTAGONISTS OF THE MUSCARINIC ACETYLCHOLINE RECEPTOR M4” (Vanderbilt University, priority 2020, published 2023)

Columns and labels:
Human M4 = biological target: T1, Human M4 (Homo sapiens, UniProt P08173); assay: mAChR M4 cell-based functional assay (calcium flux, antagonist mode vs EC80 acetylcholine), human M4/Gqi5/CHO-K1 cells; details: for remaining activity at 30 µM: CHO-K1, % ACh maximum at 30 μM, human M4, read-out: Human M4 Emin (%); for IC50: decrease of response elicited by EC80 acetylcholine, human M4/Gqi5 CHO-K1 cells
T1 construct: expressed in transfected cells; host or cells: CHO-K1 (ATCC), stably co-expressing chimeric G protein Gqi5
T1 sequence (P08173 1-479): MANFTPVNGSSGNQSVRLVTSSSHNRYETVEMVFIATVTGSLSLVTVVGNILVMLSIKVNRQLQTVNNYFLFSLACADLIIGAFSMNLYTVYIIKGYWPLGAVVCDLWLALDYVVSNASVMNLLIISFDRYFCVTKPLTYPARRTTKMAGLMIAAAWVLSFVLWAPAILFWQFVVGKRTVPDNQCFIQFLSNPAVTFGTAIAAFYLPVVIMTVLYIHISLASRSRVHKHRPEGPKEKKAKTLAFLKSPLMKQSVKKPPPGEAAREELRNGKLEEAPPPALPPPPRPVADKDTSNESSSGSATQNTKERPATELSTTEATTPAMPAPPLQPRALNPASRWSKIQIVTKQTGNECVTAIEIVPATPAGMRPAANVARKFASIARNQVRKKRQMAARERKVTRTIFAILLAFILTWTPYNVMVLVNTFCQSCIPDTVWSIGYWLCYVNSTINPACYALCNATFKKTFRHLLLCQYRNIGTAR
Method: (§1) Human or rat M4 cDNA, along with the chimeric G protein Gqi5, were transfected into Chinese hamster ovary (CHO-K1) cells purchased from the American Type Culture Collection using Lipofectamine2000. M4/Gqi5/CHO cells were grown in Ham's F-12 medium containing 10% heat-inactivated fetal bovine serum (FBS), 20 mM HEPES, 500 μg/mL G418 sulfate, and 200 μg/mL Hygromycin B.
(§2) For high throughput measurement of agonist-evoked increases in intracellular calcium, CHO-K1 cells stably expressing muscarinic receptors were plated in growth medium lacking G418 and hygromycin at 15,000 cells/20 μL/well in Greiner 384-well black-walled, tissue culture (TC)-treated, clear-bottom plates (VWR). Cells were incubated overnight at 37° C. and 5% CO2. The next day, cells were washed using an ELX 405 (BioTek) with assay buffer; the final volume was then aspirated to 20 μL. Next, 20 μL of a 2.3 μM stock of Fluo-4/acetoxymethyl ester (Invitrogen, Carlsbad, Calif.), prepared as a 2.3 mM stock in DMSO and mixed in a 1:1 ratio with 10% (w/v) Pluronic F-127 and diluted in assay buffer, was added to the wells and the cell plates were incubated for 50 min at 37° C. and 5% CO2. Dye was removed by washing with the ELX 405 and the final volume was aspirated to 20 μL. Compound master plates were formatted in a 10 point concentration-response curve (CRC) format (1:3 dilutions) in 100% DMSO with a starting concentration of 10 or 1 mM using a BRAVO liquid handler (Agilent). Test compound CRCs were then transferred to daughter plates (240 nL) using the Echo acoustic plate reformatter (Labcyte, Sunnyvale, Calif.) and then diluted into assay buffer (40 μL) to a 2× stock using a Thermo Fisher Combi (Thermo Fisher Scientific, Waltham, Mass.).
(§3) Calcium flux was measured using the Functional Drug Screening System (FDSS) 6000 or 7000 (Hamamatsu Corporation, Tokyo, Japan) as an increase in the fluorescent static ratio. Compounds were applied to cells (20 μL, 2×) using the automated system of the FDSS at 2 seconds into the protocol and the data were collected at 1 Hz. At 143 s, 10 μL of an EC20 concentration of the muscarinic receptor agonist acetylcholine was added (5×), followed by the addition of 12 μL of an EC80 concentration of acetylcholine at the 268 s time point (5×). Agonist activity was analyzed as a concentration-dependent increase in calcium mobilization upon compound addition. Positive allosteric modulator activity was analyzed as a concentration-dependent increase in the EC20 acetylcholine response. Antagonist activity was analyzed as a concentration-dependent decrease in the EC80 acetylcholine response; for the purposes of the tables herein, an IC50 (inhibitory concentration 50) was calculated as a concentration-dependent decrease of the response elicited by an EC80 concentration of acetylcholine. Concentration-response curves were generated using a four-parameter logistical equation in XLFit curve fitting software (IDBS, Bridgewater, N.J.) for Excel (Microsoft, Redmond, Wash.) or Prism (GraphPad Software, Inc., San Diego, Calif.) or the Dotmatics software platform (Dotmatics, Bishop's Stortford, UK).
(§4) Compounds were synthesized as described above. Activity (IC50 and Emin) was determined in the mAChR M4 cell-based functional assay as described above and the data are shown in Table 2.

Rat M4 = biological target: T2, Rat M4 (Rattus norvegicus, UniProt P08485); assay: mAChR M4 cell-based functional assay (calcium flux, antagonist mode vs EC80 acetylcholine), rat M4/Gqi5/CHO-K1 cells; details: for remaining activity at 30 µM: CHO-K1, % ACh maximum at 30 μM, rat M4, read-out: Rat M4 Emin (%); for IC50: decrease of response elicited by EC80 acetylcholine, rat M4/Gqi5 CHO-K1 cells
T2 construct: expressed in transfected cells; host or cells: CHO-K1 (ATCC), stably co-expressing chimeric G protein Gqi5
T2 sequence (P08485 1-478): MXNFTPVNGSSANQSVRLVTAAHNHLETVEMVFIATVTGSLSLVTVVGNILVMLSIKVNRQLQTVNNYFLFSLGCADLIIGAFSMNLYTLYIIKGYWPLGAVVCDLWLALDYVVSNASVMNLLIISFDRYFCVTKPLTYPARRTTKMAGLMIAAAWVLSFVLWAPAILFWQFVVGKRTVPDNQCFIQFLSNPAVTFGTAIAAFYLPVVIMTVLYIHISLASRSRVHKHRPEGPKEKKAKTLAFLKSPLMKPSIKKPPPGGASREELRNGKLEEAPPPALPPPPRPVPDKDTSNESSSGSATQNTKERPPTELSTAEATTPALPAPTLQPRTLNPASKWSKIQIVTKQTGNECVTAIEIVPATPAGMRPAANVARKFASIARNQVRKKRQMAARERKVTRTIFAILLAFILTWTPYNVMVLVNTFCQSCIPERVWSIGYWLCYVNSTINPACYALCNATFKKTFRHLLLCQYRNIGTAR
Method: as §1, §2, §3, §4

SMILES | remaining activity at 30 µM (Human M4) | remaining activity at 30 µM (Rat M4) | IC50 (Human M4) | IC50 (Rat M4)
CC1(C)CC(N2C[C@H]3C[C@H](Nc4ccc([S+]([O-])c5ccccc5)nn4)C[C@H]3C2)CCO1 (stereo partly drawn) [compound 65, (3aR,5s,6aS)-2-(2,2-dimethyltetrahydro-2H-pyran-4-yl)-N-(6-(phenylsulfinyl)pyridazin-3-yl)octahydrocyclopenta[c]pyrrol-5-amine] | 5% | 10% | – | –
O=C(Nc1ccccc1)c1ccc(N[C@H]2C[C@@H]3CN(CC4CCOCC4)C[C@@H]3C2)nn1 [compound 7, N-phenyl-6-(((3aR,5s,6aS)-2-((tetrahydro-2H-pyran-4-yl)methyl)octahydrocyclopenta[c]pyrrol-5-yl)amino)pyridazine-3-carboxamide] | 4% | 22% | 0.572 µM | > 10 µM
CC1(C)CC(N2C[C@H]3C[C@H](Nc4ccc(-c5ccc6nccn6c5)nn4)C[C@H]3C2)CCO1 (stereo partly drawn) [compound 21, (3aR,5s,6aS)-2-(2,2-dimethyltetrahydro-2H-pyran-4-yl)-N-(6-(imidazo[1,2-a]pyridin-6-yl)pyridazin-3-yl)octahydrocyclopenta[c]pyrrol-5-amine] | 7% | 8% | 0.0362 µM | 0.808 µM
Cc1cc(Br)cnc1CN1C[C@H]2C[C@H](Nc3ccc(S(=O)(=O)C4CCCCC4)nn3)C[C@H]2C1 [compound 45, (3aR,5s,6aS)-2-((5-bromo-3-methylpyridin-2-yl)methyl)-N-(6-(cyclohexylsulfonyl)pyridazin-3-yl)octahydrocyclopenta[c]pyrrol-5-amine] | 4% | 3% | 0.0203 µM | 0.292 µM
O=S(=O)(c1ccccc1)c1ccc(N[C@H]2C[C@@H]3CN(Cc4ccc5c(c4)OCO5)C[C@@H]3C2)nn1 [compound 27, (3aR,5s,6aS)-2-(benzo[d][1,3]dioxol-5-ylmethyl)-N-(6-(phenylsulfonyl)pyridazin-3-yl)octahydrocyclopenta[c]pyrrol-5-amine] | 2% | 4% | 0.0128 µM | 0.791 µM
Fc1ccc(Cl)c(-c2ccc(N[C@H]3C[C@@H]4CN(C5CC6(COC6)C5)C[C@@H]4C3)nn2)c1 [compound 69, (3aR,5s,6aS)-N-(6-(2-chloro-5-fluorophenyl)pyridazin-3-yl)-2-(2-oxaspiro[3.3]heptan-6-yl)octahydrocyclopenta[c]pyrrol-5-amine] | 4% | 17% | 0.0118 µM | 0.905 µM
O=C(c1ccc(N[C@H]2C[C@@H]3CN(CC4CCOCC4)C[C@@H]3C2)nn1)N1CCOCC1 [compound 6, morpholino(6-(((3aR,5s,6aS)-2-((tetrahydro-2H-pyran-4-yl)methyl)octahydrocyclopenta[c]pyrrol-5-yl)amino)pyridazin-3-yl)methanone] | 21% | 13% | 0.0117 µM | 7.43 µM
CC1(C)CC(N2C[C@H]3C[C@H](Nc4ccc(N5CCOCC5)nn4)C[C@H]3C2)CCO1 (stereo partly drawn) [compound 60, (3aR,5s,6aS)-2-(2,2-dimethyltetrahydro-2H-pyran-4-yl)-N-(6-morpholinopyridazin-3-yl)octahydrocyclopenta[c]pyrrol-5-amine] | 5% | 14% | 0.0494 µM | 5.17 µM
CC1(C)CC(N2C[C@H]3C[C@H](Nc4ccc(-c5cccnc5)nn4)C[C@H]3C2)CCO1 (stereo partly drawn) [compound 56, (3aR,5s,6aS)-2-(2,2-dimethyltetrahydro-2H-pyran-4-yl)-N-(6-(pyridin-3-yl)pyridazin-3-yl)octahydrocyclopenta[c]pyrrol-5-amine] | 4% | 14% | 0.0377 µM | 7.25 µM
CC1(C)CC(N2C[C@H]3C[C@H](Nc4ccc(Cl)nn4)C[C@H]3C2)CCO1 (stereo partly drawn) [compound 51, (3aR,5s,6aS)-N-(6-chloropyridazin-3-yl)-2-(2,2-dimethyltetrahydro-2H-pyran-4-yl)octahydrocyclopenta[c]pyrrol-5-amine] | 9% | 38% | 8.56 µM | > 10 µM
[O-][S+](c1ccccc1)c1ccc(N[C@H]2C[C@@H]3CN(Cc4ccc5c(c4)OCO5)C[C@@H]3C2)nn1 (stereo partly drawn) [compound 30, (3aR,5s,6aS)-2-(benzo[d][1,3]dioxol-5-ylmethyl)-N-(6-(phenylsulfinyl)pyridazin-3-yl)octahydrocyclopenta[c]pyrrol-5-amine] | 4% | 4% | 0.0078 µM | 0.196 µM
O=S(=O)(c1ccccc1)c1nnc(N[C@H]2C[C@@H]3CN(CC4CCOCC4)C[C@@H]3C2)cc1NC1CC1 [compound 39, N^5-cyclopropyl-6-(phenylsulfonyl)-N^3-((3aR,5s,6aS)-2-((tetrahydro-2H-pyran-4-yl)methyl)octahydrocyclopenta[c]pyrrol-5-yl)pyridazine-3,5-diamine] | 4% | 4% | 0.0707 µM | 0.288 µM
Cc1cc(CN2C[C@H]3C[C@H](Nc4ccc(S(=O)(=O)c5ccccc5)nn4)C[C@H]3C2)nn1C [compound 24, (3aR,5s,6aS)-2-((1,5-dimethyl-1H-pyrazol-3-yl)methyl)-N-(6-(phenylsulfonyl)pyridazin-3-yl)octahydrocyclopenta[c]pyrrol-5-amine] | 8% | 35% | 0.906 µM | > 10 µM
Cc1cnn(C)c1-c1ccc(N[C@H]2C[C@@H]3CN(C4CCOC(C)(C)C4)C[C@@H]3C2)nn1 (stereo partly drawn) [compound 57, (3aR,5s,6aS)-N-(6-(1,4-dimethyl-1H-pyrazol-5-yl)pyridazin-3-yl)-2-(2,2-dimethyltetrahydro-2H-pyran-4-yl)octahydrocyclopenta[c]pyrrol-5-amine] | 2% | 9% | 0.0289 µM | 2.03 µM
